Five compounds from doi:10.1101/2023.10.24.563163v2, “Targeting cancer with small molecule pan-KRAS degraders” (biorxiv, 2024) can be followed below.

In test [1] the target is T1, HiBiT-KRAS^G12D (Homo sapiens, UniProt P01116, G12D).
T1 construct: HiBiT-tagged
Further details: HiBiT-KRAS degradation, split nanoluciferase lytic detection. Conditions: degrader. Here is the method:
This formula was derived from the Growth Inhibition (GI) calculation used in the National Cancer Institute’s NCI-60 high-throughput screen. KRAS Degradation Assays via Detection of Split Nanoluciferase (HiBiT) To assess PROTAC-mediated degradation of HiBiT-tagged KRAS constructs, cells were seeded at 25 000 cells per well in culture medium into white bottom opaque 96-well plates (Perkin Elmer cat no. 5680). Plates were incubated at 37 °C, 5% CO2 in a humidified incubator over night to allow the cells to adhere. Test compounds (10 mM stock in DMSO) were added at logarithmic dose series using the HP Digital Dispenser D300 (Tecan), normalizing for added DMSO. […] Following incubation, 100 µL per well Promega Nano-Glo HiBiT lytic detection reagent mix (Promega Nano-Glo HiBiT Lytic Detection System #N3050), prepared according to the manufacturer´s instructions in the kit, were added. To allow for adequate cell lysis, plates were incubated on an orbital shaker for 15 min. and further incubated 30 min. at room temperature. Upon completion of cell lysis, luminescence was measured using an Envision plate reader using the Ultrasensitive Luminescence Protocol for 96-well plates. Luminescence levels were normalized by the values obtained with DMSO-treated samples and plotted as percent of DMSO control. DC50 values were computed using a three parametric logistic model. Dmax values represent the maximal extent of degradation observed and are stated as percent of control treatments.

For test [2], the target named is T2, KRAS^G12D (Homo sapiens, UniProt P01116, G12D). Nature of the test: cell-based. More on the design: endogenous; KRAS degradation by capillary electrophoresis immunodetection. As to conditions: GP5d; read-out: Dmax 24 h GP5d [%]. How it is done: (§1) Protein Detection by Capillary Electrophoresis Cells (50 000) were seeded the day before treatment into 96-well clear-flat bottom plates and incubated overnight (37 °C, humidified tissue culture incubator, 5% CO2). Compounds were added from DMSO stock solution using a digital dispenser and cells are incubated at 37 °C as specified (24 hours for KRAS degradation, 6 hours for determination of pERK levels). At the end of the incubation, medium was removed, cells washed with ice cold PBS, PBS removed and 50 µL lysis buffer (Meso Scale Discovery #R60TX-2) supplemented with 1:100 protease inhibitor solution, 1:100 phosphatase inhibitor I, 1:100 phosphatase inhibitor II (Meso Scale Discovery #R70AA-1), 0.5 µL/mL Benzonase (Novagen #70664-3) and 10 mM dithiothreitol added to each well. Plates with lysis buffer were immediately transferred to -80 °C freezer for at least 2 hours and then thawed on ice. Lysates were transferred to a 96 well V-bottom plate and insoluble debris was pelleted by centrifugation for 20 min. at 4 000 rpm. 40 µL of the supernatant were transferred to a fresh Eppendorf PCR plate. Analysis of protein levels was conducted using the Wes System, ProteinSimple (https://www.bio-techne.com/) as specified by the manufacturer. Briefly, Wes Master Mix (12-230 kDa WES Separation Module, 8 × 25 capillary cartridges, ProteinSimple #SM-W004) and molecular weight markers were prepared as specified in the manufacturer’s recommendations. To detect primary antibodies, anti-rabbit (Protein Simple #DM-001) or anti-mouse (Protein Simple #DM-002) detection modules were used. 7.2 µL lysate + 1.8 µL master mix were combined and heated to 95 °C for 5 min.

Test [3] has as its system A375. Nature of the test: cells. Further details: pERK levels by capillary electrophoresis. As to conditions: Homo sapiens, A-375, 6 h. Here is the method:
as §1, with “5 min. Th” for “5 min.”

Test [4] has as its system HEK293. Nature of the test: cells. As to conditions: Homo sapiens, HEK293, 6 h. Further details: pERK levels by capillary electrophoresis. Here is the method:
as §1, with “5 min. Th” for “5 min.”

Test [5] concerns NCI-H358. The test can be described thus: cells. Further details: pERK levels by capillary electrophoresis. As to conditions: Homo sapiens, NCI-H358, 6 h. Here is the method: as §1, with “5 min. Th” for “5 min.”
In test [6] the test system is SW620. The test can be described thus: cells. Further details: pERK levels by capillary electrophoresis. As to conditions: Homo sapiens, SW-620, 6 h. Here is the method:
as §1, with “5 min. Th” for “5 min.”

Test [7] has as its target T2, KRAS^G12D. Further details: endogenous; KRAS degradation by capillary electrophoresis immunodetection. As to conditions: read-out: DC50 24 h GP2d.

pIC50: −log10 of the molar value. Like-named read-outs stand apart in the source and are kept apart here.

T2 sequence (P01116 whole entry G12D): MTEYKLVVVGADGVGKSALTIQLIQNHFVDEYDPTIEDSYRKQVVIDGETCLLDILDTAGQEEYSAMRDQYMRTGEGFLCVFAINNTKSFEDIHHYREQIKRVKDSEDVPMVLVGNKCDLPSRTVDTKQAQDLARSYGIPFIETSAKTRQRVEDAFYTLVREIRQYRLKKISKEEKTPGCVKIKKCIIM
T1 sequence (P01116 whole entry G12D): as above

In the case of `Cc1ncsc1-c1ccc(CNC(=O)[C@@H]2C[C@@H](O)CN2C(=O)[C@@H](NC(=O)COCCCN2CCCN(c3nccc(-c4noc([C@@]5(C)CCCc6sc(N)c(C#N)c65)n4)n3)[C@@H](C)C2)C(C)(C)C)cc1` [compound 2], in test [1] (read-out: DC50 24 h GP5d HiBiT), the 50% degradation concentration (DC50) turned out to be 494 nM. Also, the maximal degradation (Dmax) in test [2] was 100%.
Regarding `Cc1ncsc1-c1ccc(CNC(=O)[C@@H]2C[C@@H](O)CN2C(=O)[C@@H](NC(=O)CCCCCN2CCCN(c3nccc(-c4noc([C@@]5(C)CCCc6sc(N)c(C#N)c65)n4)n3)[C@@H](C)C2)C(C)(C)C)cc1` [compound 3], the half-maximal degradation concentration (DC50) is 68.1 nM in test [1] (read-out: DC50 24 h GP5d HiBiT) and 76.3 nM in test [7]. Besides, the pIC50 in test [3] is less than 6.00; in test [4], less than 6.00; in test [5], less than 6.00; in test [6], 6.15. Also, in test [2], the Dmax stood at 99%.
Take `Cc1ncsc1-c1ccc(CNC(=O)[C@@H]2C[C@@H](O)CN2C(=O)[C@@H](c2cc(OCCCCN3CCCN(c4nccc(-c5noc([C@@]6(C)CCCc7sc(N)c(C#N)c76)n5)n4)[C@@H](C)C3)no2)C(C)C)cc1` [compound 4]: the DC50 in test [1] (10% human serum, read-out: DC50 24 h GP5d HiBiT 10% human serum) is 1.9 nM; in test [1] (10% mouse serum, read-out: DC50 24 h GP5d HiBiT 10% mouse serum), 33.1 nM; in test [1] (read-out: DC50 24 h GP5d HiBiT) it was 1.4 nM; in test [7] it was 3.6 nM. Moreover, the pIC50 in test [3] was less than 6.00; in test [4], less than 6.00; in test [5], 8.09; in test [6], 8.04. The Dmax in test [2] is 100%.
With `Cc1ncsc1-c1ccc(CNC(=O)C2CC(O)CN2C(=O)C(c2cc(OCCCCN3CCCN(c4nccc(-c5noc(C6(C)CCCc7sc(N)c(C#N)c76)n5)n4)C(C)C3)no2)C(C)C)cc1` (stereo not shown) [compound 5], the pIC50 in test [3], in test [4], in test [5] and in test [6] was less than 6.00 in each case.
As for `Cc1ncsc1-c1ccc([C@H](CO)NC(=O)[C@@H]2C[C@@H](O)CN2C(=O)[C@H](C(C)C)n2cc(OCCCCN3CCCN(c4nccc(-c5noc([C@@]6(C)CCCc7sc(N)c(C#N)c76)n5)n4)[C@@H](C)C3)nn2)cc1` [compound 7, ACBI3], the DC50 was found to be 0.7 nM in test [1] (read-out: DC50 24 h GP5d HiBiT) and 3.9 nM in test [7]. For the same compound, the Dmax in test [2] was determined as 99%.
